Paper PMC5587642, “A Novel Benzocoumarin-Stilbene Hybrid as a DNA ligase I inhibitor with in vitro and in vivo anti-tumor activity in breast cancer models” (Scientific Reports, 2017)

Columns and labels:
MDA-MB-231 cells = test: Comet assay; format: cell-based, human; conditions: 12 µM, 48 h
Procedure: Comet assay was performed as described by Olive et al ^3 with slight modifications. MDA-MB-231 cells treated with compound 19 at 12µM for 48h. The harvested cells were mixed with low melting point agarose and pipet the 200μl of cell suspension onto agarose coated surface of frosted slides. The samples were lysed for overnight at 4 °C after the lysis, electrophoresis performed at 40mA for 30mins. The slides neutralized by water, stained with propidium iodide and images were captured by fluorescence microscope. As shown in Supplementary Fig. 71 the treated samples (B) have increased length of DNA tail as compared to control sample (A). This increase in the tail length of DNA occurs due to DNA damage which is induced by compound 19 in MDA-MB-231 cells.

[1] = molecular target: T1, DNA ligation (hLigI) in MDA-MB-231 cell lysate (Homo sapiens, UniProt P18858); test: Ex-vivo ligation assay with lysate of treated cells; format: cell-based; conditions: MDA-MB-231, treated 48 h
T1 construct: endogenous in cells; host or cells: MDA-MB-231
T1 sequence (P18858 whole entry): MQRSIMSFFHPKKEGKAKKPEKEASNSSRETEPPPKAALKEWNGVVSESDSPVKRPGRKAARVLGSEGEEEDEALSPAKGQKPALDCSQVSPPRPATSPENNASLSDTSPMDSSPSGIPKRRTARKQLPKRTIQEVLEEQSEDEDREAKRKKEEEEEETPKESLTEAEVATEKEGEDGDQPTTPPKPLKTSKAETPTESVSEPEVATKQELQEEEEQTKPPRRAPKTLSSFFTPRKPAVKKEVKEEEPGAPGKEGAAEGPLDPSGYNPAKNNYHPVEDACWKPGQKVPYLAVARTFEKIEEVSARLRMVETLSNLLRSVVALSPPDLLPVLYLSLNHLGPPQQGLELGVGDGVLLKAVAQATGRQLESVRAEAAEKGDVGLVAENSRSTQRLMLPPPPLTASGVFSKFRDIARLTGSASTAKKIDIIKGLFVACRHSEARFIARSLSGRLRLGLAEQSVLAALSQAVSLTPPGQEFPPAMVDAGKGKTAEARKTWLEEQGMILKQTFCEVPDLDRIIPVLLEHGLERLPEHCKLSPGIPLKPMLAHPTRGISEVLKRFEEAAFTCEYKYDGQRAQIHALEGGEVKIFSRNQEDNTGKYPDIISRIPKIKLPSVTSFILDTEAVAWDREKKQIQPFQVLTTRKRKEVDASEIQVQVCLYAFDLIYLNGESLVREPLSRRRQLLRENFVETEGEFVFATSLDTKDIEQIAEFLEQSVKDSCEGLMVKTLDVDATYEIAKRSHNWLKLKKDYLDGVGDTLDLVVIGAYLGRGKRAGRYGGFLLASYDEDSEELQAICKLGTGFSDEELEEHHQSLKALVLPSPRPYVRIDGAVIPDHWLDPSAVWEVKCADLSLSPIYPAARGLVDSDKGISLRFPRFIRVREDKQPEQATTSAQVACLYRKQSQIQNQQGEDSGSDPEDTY
Procedure: Cells (MDA-MB-231) were seeded in 6 well plates and treated either with vehicle control (DMSO) or with different concentrations (6 and 12 µM) of compound 19 for 48 h. After the treatment cell lysate was prepared and western blotting was performed as described previously. Briefly, the cells were lysed by very brief sonication. Sonicated samples were centrifuged and the supernatant was collected and used for ligation assay and western blotting.
The MDA-MB-231 and 4T1 cells were treated with different concentrations of compound 19 for 48h. Cell lysate were prepared as described previously ^6 for the ligation assay. Here we used same DNA substrate which was used in FEN1 flap cleavage assay so that we can check the activity of hLigI and FEN1 proteins in compound 19 treated samples. The reactions were performed as described previously ^6. In the Supplementary Fig. 74 cleaved product remain (25 mer) same. This cleaved product occurs after the cleavage of 25+6 mer oligo by FEN1 protein, since the cleaved product (25 mer) remains same in treated as well as in control samples we can conclude that the compound 19 unable to inhibit the FEN1 protein inside the cells. The cleaved product (25 mer) make a double strand nicked substrate for hLig I protein with 27 mer and 52 mer oligo used in the reaction. hLigI protein gives rise to ligated (52 mer oligo) product after the completion of reaction. […]

FEN1 protein = molecular target: T2, FEN1 protein (Homo sapiens, UniProt P39748); test: Flap cleavage assay; format: biochemical; conditions: compound 19 at 5, 10, 20 µM
T2 construct: His-tag (C); made in house; host or cells: E. coli BL21DE3
T2 sequence (P39748 whole entry): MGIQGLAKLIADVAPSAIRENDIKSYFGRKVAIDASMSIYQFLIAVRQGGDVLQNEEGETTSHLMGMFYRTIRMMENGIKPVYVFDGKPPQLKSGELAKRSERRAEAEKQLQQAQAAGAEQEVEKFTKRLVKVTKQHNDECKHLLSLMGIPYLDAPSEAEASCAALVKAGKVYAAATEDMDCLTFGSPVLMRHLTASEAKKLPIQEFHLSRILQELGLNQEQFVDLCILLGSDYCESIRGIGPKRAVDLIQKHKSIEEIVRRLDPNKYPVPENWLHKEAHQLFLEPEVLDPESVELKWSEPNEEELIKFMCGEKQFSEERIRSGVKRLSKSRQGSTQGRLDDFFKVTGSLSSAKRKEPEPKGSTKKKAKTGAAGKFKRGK
Procedure: Purification of FEN 1: Full length FEN1 DNA template was taken from pShuttle-FEN1hWT, a gift from Sheila Stewart (Addgene plasmid#35027) is subcloned into a pET41a expression vector containing C-terminal His-tag. pET41FEN1His freshly transformed into expression host BL21DE3 E. coli cells (Novagene), single colonies picked and inoculated in 5ml of LB media containing 50μg/ml of Kanamycin, grown for 3 to 4 hrs and further subcultured in 100 ml of LB medium containing 50μg/ml of Kanamycin and grown at 37°C till the OD reached to 0.6-0.7, induced at 0.5 mM IPTG at 16°C for 18hrs. Pellets were collected and lysed in 20 mM tris 150 mM NaCl (Lysis buffer) containing 1mM PMSF and 1mM benzamidine hydrochloride and purified by Ni-NTA affinity chromatography.
Flap cleavage assay: All oligos were purchased from Integrated DNA Technologies and dissolved in nuclase free water at concentration of 100μM. FAM-labeled 25+6 Flap-mer (5’-[…]-3’*6FAM)) was annealed with 52- mer (5’-[…]-3’) and 27-mer (5’-[…]-3’) to form a complementary double strand flap cleavage substrate. […] The cleaved and uncleaved DNA molecules are separated on 15% Urea gel and bands were detected by Image Quant LAS 4010 (GE Healthcare).

[2] = tested on: DNA ligase activity in 4T1 cell lysate; test: Ex-vivo ligation assay with lysate of treated cells; format: cell-based, mouse; conditions: 4T1, treated 48 h
Procedure: The MDA-MB-231 and 4T1 cells were treated with different concentrations of compound 19 for 48h. Cell lysate were prepared as described previously ^6 for the ligation assay. Here we used same DNA substrate which was used in FEN1 flap cleavage assay so that we can check the activity of hLigI and FEN1 proteins in compound 19 treated samples. The reactions were performed as described previously ^6. In the Supplementary Fig. 74 cleaved product remain (25 mer) same. This cleaved product occurs after the cleavage of 25+6 mer oligo by FEN1 protein, since the cleaved product (25 mer) remains same in treated as well as in control samples we can conclude that the compound 19 unable to inhibit the FEN1 protein inside the cells. The cleaved product (25 mer) make a double strand nicked substrate for hLig I protein with 27 mer and 52 mer oligo used in the reaction. hLigI protein gives rise to ligated (52 mer oligo) product after the completion of reaction. In the treated samples, ligated product (52 mer) decreases as compared to untreated samples.

## COc1cc(/C=C/c2cc(=O)oc3c2ccc2ccccc23)cc(OC)c1 [Compound 19, (E)-4-(3,5-dimethoxystyryl)-2H-benzo[h]chromen-2-one]
MDA-MB-231 cells
  DNA tail length (comet assay): significant increase in the tail length of treated cells
[1]
  DNA ligation capacity of lysate of treated cells: reduced capacity for DNA ligation
FEN1 protein
  Inhibition of FEN1 flap cleavage activity: not able to inhibit
[2]
  DNA ligase activity in cell free extracts of treated cells: can inhibit DNA ligase activity
